EP4635500A1, “THERAPEUTIC AGENT FOR BACTERIAL INFECTION” (Sumitomo Pharma Co., Ltd., priority 2022, dated 2024)
Where two headings read alike, the source gives them in different places.

What was measured:
53 CRE and CPE strains = assay: MICrange, MIC50, MIC80, MIC90 for 53 bacterial isolates (Example 5, Table 5); type: cell-based; details: 53 bacterial isolates
Enterobacterales = assay: MIC, broth microdilution, CDC/FDA Antibiotic Resistance Isolate Bank (Example 7, Tables 8, 11, 12); type: cell-based; details: for MIC: read-out: MIC

CO/N=C(\C(=O)N[C@@H]1C(=O)N2C(C(=O)[O-])=C(C[n+]3ccn4ncccc43)CS[C@H]12)c1nsc(N)n1 [Cefozopran, cefozopran]
4 µg/mL: MIC (Enterobacterales; Enterobacter cloacae, KUB No. 5529, AR Bank# 32) | MIC (Enterobacterales; Enterobacter cloacae, KUB No. 5763, AR Bank # 367) | MIC (Enterobacterales; Klebsiella aerogenes, Enterobacter aerogenes, KUB No. 5777, AR Bank # 431) | MIC (Enterobacterales; Klebsiella pneumoniae, KUB No. 5531, AR Bank# 34)
32 µg/mL: MIC50 (53 CRE and CPE strains; read-out: MIC50) | MIC (Enterobacterales; Enterobacter cloacae, KUB No. 5590, AR Bank # 93) | MIC (Enterobacterales; Escherichia coli, KUB No. 5601, AR Bank # 104) | MIC (Enterobacterales; Escherichia coli, KUB No. 5765, AR Bank # 369) | MIC (Enterobacterales; Escherichia coli, KUB No. 5767, AR Bank # 371) | MIC (Enterobacterales; Klebsiella aerogenes, Enterobacter aerogenes, KUB No. 5658, AR Bank # 161) | MIC (Enterobacterales; Klebsiella oxytoca, KUB No. 5776, AR Bank # 380) | MIC (Enterobacterales; Klebsiella pnemnonine, KUB No. 5758, AR Bank # 362)
0.25 µg/mL: MIC (Enterobacterales; Enterobacter cloacae, Enterobacter cloacae group, KUB No. 5629, AR Bank # 132) | MIC (Enterobacterales; Enterobacter cloacae, KUB No. 5570, AR Bank # 73) | MIC (Enterobacterales; Escherichia coli, KUB No. 5564, AR Bank # 67) | MIC (Enterobacterales; Escherichia coli, KUB No. 5581, AR Bank # 84)
1 µg/mL: MIC (Enterobacterales; Enterobacter cloacae, Enterobacter cloacae complex, KUB No. 5661, AR Bank # 164) | MIC (Enterobacterales; Escherichia coli, KUB No. 5770, AR Bank # 374) | MIC (Enterobacterales; Escherichia, KUB No. 57, AR Bank # 436 (row cut off)) | MIC (Enterobacterales; Klebsiella oxytoca, KUB No. 5644, AR Bank # 147)
64 µg/mL: MIC50 (Enterobacterales; 154 strains of Enterobacterales, read-out: MIC50) | MIC (Enterobacterales; Escherichia coli, Escherichia coli KUB No. 5795, AR Bank #451) | MIC (Enterobacterales; Escherichia coli, KUB No. 5766, AR Bank # 370) | MIC (Enterobacterales; Escherichia coli, KUB No. 5780, AR Bank # 434)
≤ 0.03 µg/mL: MIC (Enterobacterales; Escherichia coli, KUB No. 5774, AR Bank # 378)
0.5 µg/mL: MIC (Enterobacterales; Escherichia coli, KUB No. 5578, AR Bank # 81) | MIC (Enterobacterales; Escherichia coli, KUB No. 5586, AR Bank # 89) | MIC (Enterobacterales; Escherichia coli, KUB No. 5769, AR Bank # 373) | MIC (Enterobacterales; Klebsiella aerogenes, Enterobacter aerogenes, KUB No. 5559, AR Bank # 62) | MIC (Enterobacterales; Klebsiella aerogenes, Enterobacter aerogenes, KUB No. 5571, AR Bank # 74) | MIC (Enterobacterales; Klebsiella oxytoca, KUB No. 5771, AR Bank # 375)
2 µg/mL: MIC (Enterobacterales; Enterobacter cloacae, KUB No. 5557, AR Bank# 60)
0.06 µg/mL: MIC (Enterobacterales; Escherichia coli, KUB No. 5574, AR Bank # 77) | MIC (Enterobacterales; Escherichia coli, KUB No. 5764, AR Bank # 368)
8 µg/mL: MIC (Enterobacterales; Enterobacter cloacae, KUB No. 5547, AR Bank# 50) | MIC (Enterobacterales; Escherichia coli, KUB No. 5582, AR Bank # 85)
> 64 µg/mL: MIC80 (53 CRE and CPE strains; read-out: MIC80) | MIC90 (53 CRE and CPE strains; read-out: MIC90) | MIC80 (Enterobacterales; 154 strains of Enterobacterales, read-out: MIC80) | MIC90 (Enterobacterales; 154 strains of Enterobacterales, read-out: MIC90) | MIC (Enterobacterales; Citrobacter freundii, KUB No. 5654, AR Bank # 157) | MIC (Enterobacterales; Enterobacter cloacae, Enterobacter cloacae KUB No. 5792, AR Bank #448) | MIC (Enterobacterales; Enterobacter cloacae, Enterobacter cloacae KUB No. 5807, AR Bank #501) | MIC (Enterobacterales; Enterobacter cloacae, Enterobacter cloacae KUB No. 5808, AR Bank #502) | MIC (Enterobacterales; Enterobacter cloacae, KUB No. 5535, AR Bank# 38) | MIC (Enterobacterales; Enterobacter cloacae, KUB No. 5550, AR Bank# 53) | MIC (Enterobacterales; Enterobacter cloacae, KUB No. 5660, AR Bank # 163) | MIC (Enterobacterales; Enterobacter cloacae, KUB No. 5778, AR Bank # 432) | MIC (Enterobacterales; Enterobacter cloaccae, KUB No. 5651, AR Bank # 154) | MIC (Enterobacterales; Enterobacter clooreae, KUB No. 5633, AR Bank # 136) | MIC (Enterobacterales; Escherichia coli, Escherichia coli KUB No. 5783, AR Bank #437) | MIC (Enterobacterales; Escherichia coli, Escherichia coli KUB No. 5794, AR Bank #450) | MIC (Enterobacterales; Escherichia coli, Escherichia coli KUB No. 5796, AR Bank #452) | MIC (Enterobacterales; Escherichia coli, Escherichia coli KUB No. 5803, AR Bank #861) | MIC (Enterobacterales; Escherichia coli, KUB No. 5566, AR Bank # 69) | MIC (Enterobacterales; Escherichia coli, KUB No. 5583, AR Bank # 86) | MIC (Enterobacterales; Escherichia coli, KUB No. 5615, AR Bank # 118) | MIC (Enterobacterales; Escherichia coli, KUB No. 5616, AR Bank # 119) | MIC (Enterobacterales; Escherichia coli, KUB No. 5625, AR Bank # 128) | MIC (Enterobacterales; Escherichia coli, KUB No. 5634, AR Bank # 137) | MIC (Enterobacterales; Escherichia coli, KUB No. 5646, AR Bank # 149) | MIC (Enterobacterales; Escherichia coli, KUB No. 5647, AR Bank # 150) | MIC (Enterobacterales; Escherichia coli, KUB No. 5648, AR Bank # 151) | MIC (Enterobacterales; Escherichia coli, KUB No. 5659, AR Bank # 162) | MIC (Enterobacterales; Escherichia coli, KUB No. 5768, AR Bank # 372) | MIC (Enterobacterales; Escherichia coli, KUB No. 5781, AR Bank # 435) | MIC (Enterobacterales; Klebsiella oxytoca, KUB No. 5568, AR Bank # 71) | MIC (Enterobacterales; Klebsiella ozaenae, KUB No. 5548, AR Bank# 51) | MIC (Enterobacterales; Klebsiella ozaenae, KUB No. 5593, AR Bank # 96) | MIC (Enterobacterales; Klebsiella pneumoniae, KUB No. 55, AR Bank# 47) | MIC (Enterobacterales; Klebsiella pneumoniae, KUB No. 5536, AR Bank# 39) | MIC (Enterobacterales; Klebsiella pneumoniae, KUB No. 5537, AR Bank# 40)
16 µg/mL: MIC (Enterobacterales; Enterobacter cloacae, KUB No. 5562, AR Bank # 65) | MIC (Enterobacterales; Enterobacter cloacae, KUB No. 5569, AR Bank # 72) | MIC (Enterobacterales; Enterobacter cloacae, KUB No. 5761, AR Bank # 365) | MIC (Enterobacterales; Enterobacter cloacae, KUB No. 5762, AR Bank # 366) | MIC (Enterobacterales; Escherichia coli, KUB No. 5558, AR Bank # 61) | MIC (Enterobacterales; Escherichia coli, KUB No. 5611, AR Bank # 114) | MIC (Enterobacterales; Escherichia coli, KUB No. 5779, AR Bank # 433)
